Assay results reported in patent publication US6380164B1, “Method for treating cytokine mediated hepatic injury” (University of Kentucky Research Foundation, priority 1999, dated 2002).

System: Male BALB/c HSD mice
Experiment: Survival of mice rendered hepatotoxic by LPS/GAL treatment (hepatic failure / septic shock model)
Format: in vivo
Conditions: for survival time compared to mice receiving LPS/GAL only: mice made septic by LPS/GAL treatment, 4 mg/kg intraperitoneal x5, result in words; for SURVIVAL 15 Hours (number of surviving mice) / SURVIVAL 15 Hours (percent of mice) / SURVIVAL 20 Hours (number of surviving mice) / SURVIVAL 20 Hours (percent of mice) / SURVIVAL 40 Hours (number of surviving mice) / SURVIVAL 40 Hours (percent of mice) / SURVIVAL 65 Hours (number of surviving mice) / SURVIVAL 65 Hours (percent of mice): n=15 mice, 4 mg/kg intraperitoneal at 0 h, 2 h, 4 h, 6 h and 7.5 h, LPS/GAL at 6.5 h; for SURVIVAL 15 Hours (number of surviving mice) / SURVIVAL 15 Hours (percent of mice): 15 h after the last injection; for SURVIVAL 20 Hours (number of surviving mice) / SURVIVAL 20 Hours (percent of mice): 20 h after the last injection; for SURVIVAL 40 Hours (number of surviving mice) / SURVIVAL 40 Hours (percent of mice): 40 h after the last injection; for SURVIVAL 65 Hours (number of surviving mice) / SURVIVAL 65 Hours (percent of mice): 65 h after the last injection
Experimental: Hepatic failure was induced in mice by intraperitoneal injections of a mixture of lipopolysaccharide (LPS) ([…]) and D-galactosamine (GAL) (700 mg/kg) to form LPS/GAL. LPS is a bacterial endotoxin that is a major stimulus for production of many cytokines, particularly tumor necrosis factor (TNF), thought to be involved in liver injury. GAL is an amino sugar that sensitizes hepatocytes by depleting the base uridine and thus preventing hepatic transcription, and sensitizes animals to normally innocuous amounts of endotoxin or TNF. The LPS/GAL treatment induces fulminate hepatic and multiorgan failure, and serves as a model for septic shock. The major effects of LPS/GAL are elicited by the inflammatory cytokine TNF-α. Hepatocytes sensitized to TNF-α then undergo apoptosis or programmed cell death in response to inflammatory processes.
Mice were treated with deltorphin and were subsequently rendered hepatotoxic by LPS/GAL treatment. An emulsion of deltorphin I SEQ ID NO:1 (Tyr-D-Ala-Phe-Asp-Val-Val-Gly-NH2) was prepared at a concentration of 80 μg/200 μl in sterile phosphate buffered saline (PBS). An emulsion of DADLE (Tyr-D-Ala-Gly-Phe-D-Leu-enkephalin) was also prepared at a concentration of 80 μg/200 μl in sterile PBS. Male BALB/c HSD mice were treated by intraperitoneal injections according to the following protocol. Control mice (n=7) received only LPS/GAL (280 μl) at 6.5 h. Deltorphin I SEQ ID NO:1 treated mice (n=15) received injections of 4 mg/kg deltorphin I SEQ ID NO:1 at 0 h, 2 h, 4 h, 6 h and 7.5 h and received an LPS/GAL injection at 6.5 h. DADLE treated mice (n 15) received 4 mg/kg DADLE at 0 h, 2 h, 4 h, 6 h and 7.5 h and received an LPS/GAL injection at 6.5 h.
Both control and treated mice were monitored at 15 h, 20 h, 40 h and 65 h after the last injection.

| Compound | survival time compared to mice receiving LPS/GAL only | SURVIVAL 15 Hours (number of surviving mice) | SURVIVAL 15 Hours (percent of mice) [%] | SURVIVAL 20 Hours (number of surviving mice) | SURVIVAL 20 Hours (percent of mice) [%] | SURVIVAL 40 Hours (number of surviving mice) | SURVIVAL 40 Hours (percent of mice) [%] | SURVIVAL 65 Hours (number of surviving mice) | SURVIVAL 65 Hours (percent of mice) [%] |
| --- | --- | --- | --- | --- | --- | --- | --- | --- | --- |
| CC(C)C[C@@H](NC(=O)[C@H](Cc1ccccc1)NC(=O)CNC(=O)[C@@H](C)NC(=O)[C@@H](N)Cc1ccc(O)cc1)C(=O)O [DADLE, Tyr-D-Ala-Gly-Phe-D-Leu-enkephalin] | not as striking at any time point | 3 | 20 | 3 | 20 | 3 | 20 | 3 | 20 |
| Tyr-D-Ala-Phe-Asp-Val-Val-Gly-NH2 [deltorphin I SEQ ID NO:1] | markedly increased survival time | 12 | 80 | 11 | 73 | 11 | 73 | 11 | 73 |
